# Source: US20240327427A1, “NEW COMPOUNDS FOR THE TREATMENT OF ALZHEIMER'S DISEASE” (Icahn School of Medicine at Mount Sinai, priority 2020, published 2024)
# Entries after “also recorded” stand apart in the source; their conditions may differ.
# Key:
# Aβ42 flies = assay: Neurodegeneration (vacuole area) in Aβ42 fly brains after drug feeding; type: in vivo, Drosophila
# Experimental: Aβ42 flies were treated with 0, 10, or 50 μM of NCH-51 during aging to examine its effects on neurodegeneration.
# Heads of male flies were fixed in 4% paraformaldehyde for 24 hours at 4° C. and embedded in paraffin. Serial sections (6 μm thickness) through the entire heads were prepared, stained with hematoxylin and eosin (Sigma-Aldrich), and examined by bright-field microscopy. Images of the sections were captured with AxioCam 105 color (Carl Zeiss). To score brain vacuolization, the inventors performed microscopy of serial brain sections within the central neuropil regions and selected the images with the most severe vacuolization from each fly to score area of vacuolization. The inventors selected the section with the most severe neurodegeneration in the same brain area from each individual fly and the area of vacuoles was measured using Image J (NIH). The analyses were performed more than two times and two to three persons were independently involved in these tasks to avoid any bias.
# Flies were fed with the food containing 10 μM or 50 μM NCH51 or vehicle (final concentration 0.02% dimethyl sulfoxide) from the day after eclosion. These food vials were changed every 3-4 days.
# [1] = test system: Vha68-1, Vha68-2 (fly orthologs of ATP6V1A); assay: Vha68-1/Vha68-2 mRNA levels in fly brains after drug feeding; type: in vivo, Drosophila; conditions: fed
# Experimental: (§1) Since Vha68-2 decreased more dramatically compared to Vha68-1 in Aβ42 fly brains (FIG. 4Q), an inference was made that NCH-51 treatment counteracts pathological reductions in Vha68-2 levels. […] More than 25 flies for each genotype were collected and frozen. Heads were mechanically isolated, and total RNA was extracted using TRIzol Reagent (Thermo Fisher Scientific) according to the manufacturer's protocol with an additional centrifugation step (16,000×g for 10 min) to remove cuticle membranes prior to the addition of chloroform. Total RNA was reverse-transcribed using PrimeScript RT-PCR kit (TaKaRa Bio), and qRT-PCR was performed using Thunderbird SYBR qPCR Mix (Toyobo) on a CFX96 real time PCR detection system (Bio-Rad Laboratories). The average threshold cycle value was calculated from at least three replicates per sample. Expression of genes of interest was standardized relative to GAPDH1. Primer sequences are provided below. Flies were fed with the food containing 10 μM or 50 μM NCH51 or vehicle (final concentration 0.02% dimethyl sulfoxide) from the day after eclosion. These food vials were changed every 3-4 days.
# [2] = test system: SYN1, SCL17A7/VGLUT, PSD95, HOMER1; assay: Synaptic marker mRNA and protein levels in iNs; type: cell-based, human
# Experimental: Quantitative reverse transcription PCR (qRT-PCR) was performed as previously described. Specifically, cell cultures were harvested with Trizol and total RNA extraction was carried out following the manufacturer's instructions. Quantitative transcript analysis was performed using a QuantStudio 7 Flex Real-Time PCR System with the Power SYBR Green RNA-to-Ct Real-Time qPCR Kit (all Thermo Fisher Scientific). Total RNA template (25 ng per reaction) was added to the PCR mix, including primers listed below. qPCR conditions were as follows; 48° C. for 30 min, 95° C. for 10 min followed by 40 cycles (95° C. for 15 s, 60° C. for 60 s). All qPCR data is collected from at least 3 independent biological replicates of one experiment. Data analyses were performed using GraphPad PRISM 6 software.
# Images were captured and quantified using the Odyssey® Imaging Systems (LI-COR. Inc.).
# ATP6V1A = ATP6V1A mRNA expression in drug-treated NPCs (LINCS profiles); type: cell-based, human; conditions: drug-treated vs DMSO-treated, LINCS data
# Source text: Compounds were screened for drugs that can rescue the in vitro and in vivo phenotypes arising from ATP6V1A deficits. Using their drug repositioning tool, Ensemble of Multiple Drug Repositioning Approaches (EMUDRA) (Zhou et al., 2018b), the inventors matched the disease signature from the BM36-PHG region and the signatures of 3,629 drugs tested in the NPCs in the Library of Integrated Network-based Cellular Signatures (LINCS) project (FIG. 6A). The inventors further prioritized candidate drugs by their potential to increase the mRNA expression of ATP6V1A in the NPCs.
# To identify existing drugs that can restore the molecular expression change in the LOAD brains, the inventors performed a drug repositioning analysis using EMUDRA, which provides a novel computational algorithm to match disease signatures and drug-induced signatures. The inventors downloaded drug-treated gene expression profiles (level 3 data of quantile-normalized and log 2 transformed expression levels from human iPSC-derived neural progenitor cells (NPCs) from the Library of Integrated Network-Based Cellular Signatures (LINCS) program. After removing probes sets mapping to multiple genes or without known gene annotation, the remaining data were adjusted for batch effects using linear regression. The mean expression level of multiple probe sets that match to the same gene was used as the expression level for that gene. For each drug, the applied drug signature was the transcriptome-wide expression difference between drug-treated and DMSO-treated gene expression profiles. The inventors matched each of the drug signatures to the LOAD signature using EMUDRA to find drugs that could reverse the LOAD signature. […] In total, 3,629 drug signatures were analyzed and ranked. The inventors further prioritized the top-ranked drugs that can increase ATP6V1A mRNA expression in the NPCs.
# [3] = test system: 16 genes related to synaptic biology; assay: mRNA levels of key regulator genes of neuronal activity in Aβ42 fly brains; type: in vivo, Drosophila
# Experimental: as §1, with “Aβ42 flies were treated with 0, 10, or 50 μM of NCH-51 during aging” for “Since Vha68-2 decreased more dramatically compared”, “examine its effects on neurodegeneration.” for “Vha68-1 in Aβ42 fly brains (FIG. 4Q), an inference was made that NCH-51 treatment counteracts pathological reductions in Vha68-2 levels.”
# [4] = Aβ42 flies, 50 μM in food vs 0 μM
smiles,measurement,setting,value
CC(C)C(=O)SCCCCCCC(=O)Nc1nc(-c2ccccc2)cs1 [NCH-51],neurodegeneration in cell body and central neuropil regions,Aβ42 flies; 21-day-old Aβ42 fly brains,suppressed neurodegeneration
same,cell loss (cell body region neurodegeneration),Aβ42 flies; [4],significantly suppressed
same,neuropil degeneration,Aβ42 flies; [4],significantly suppressed
same,mRNA levels of Vha68-2,"[1]; Aβ42 fly brains, dose-dependent",significantly increased; also recorded: increased mRNA levels of Vha68-2
same,mRNA levels of Vha68-1 or Vha68-2,[1]; control flies,did not increase
same,SCL17A7 mRNA level,"[2]; 3 μM, 24-hr, iNs, P<0.001",dramatically elevates
same,presynaptic SYN1 mRNA level,"[2]; 3 μM, 24-hr, iNs, P<0.001",dramatically elevates
same,HOMER1 levels,[2]; ATP6V1A KD iNs or isogenic controls,increased the HOMER1 levels
same,postsynaptic PSD95,[2]; iNs,no effect
same,SYN1 protein level,"[2]; iNs, 3 μM, P<0.01",similarly increased
same,VGLUT protein level,"[2]; iNs, 3 μM, P<0.05",similarly increased
same,ATP6V1A (log2FC),ATP6V1A,0.71 log2FC
same,mRNA levels of synaptic biology related genes,[3]; dose-dependent,increased mRNA levels of synaptic biology related genes
same,number of key regulator genes of neuronal activity with increased mRNA levels,[3]; fed,9 out of 16
